Laboratory results from patent US6677460B1, “Aromatic carboxylic acid bicyclic sulfur compounds” (Idemitsu Kosan Company, Limited, priority 1993, dated 2004).

Tests used:
Format in all cases: in vivo
corn [1] = assay: Upland soil treatment test (6), phytotoxicity; details: 100 g/hectare, 20th day after treatment; further: ranges in brackets are in %
Description: (§1) 90 Parts by weight of the above carrier and 10 parts by weight of each of Compounds obtained in the above Preparation Examples were uniformly pulverized and mixed to obtain herbicides. Further, for Herbicide Comparative Examples, comparative herbicides were prepared by uniformly pulverizing and mixing 90 parts by weight of the above carrier and 10 parts by weight of each of the following Compounds x, y, A, B and C.
(§2) (6) Biological Test (Upland Soil Treatment Test, Herbicide Examples 27˜42 and Comparative Example 10).
(§3) Seeds of weeds such as large crabgrass, barnyard grass, green foxtail, cocklebur , velvetleaf and slender amaranth and seeds of corn, wheat and barley were sown in 1/5,000-are Wagner pots filled with upland soil, and covered with upland soil. Then, a predetermined amount of the herbicide prepared in the above (1) was suspended in water and uniformly sprayed onto the soil surface. Thereafter, the plants were grown in the greenhouse, and on 20th day after the treatment, the herbicide was evaluated f or herbicidal efficacy.
(§4) The dosage of each herbicide is indicated as an amount of the active ingredient per hectare. Further, air-dried weight were measured and the herbicidal efficacy and the phytotoxicity to corn are shown on the basis of the ratings described below.

barnyard grass [2] = assay: Upland soil treatment test (6); details: 100 g/hectare, 20th day after treatment; further: ranges in brackets are in %
Description: as §1, §2, §3, §4

green foxtail [3] = assay: Upland soil treatment test (6); details: 100 g/hectare, 20th day after treatment; further: ranges in brackets are in %
Description: as §1, §2, §3, §4

cocklebur [4] = assay: Upland soil treatment test (6); details: 100 g/hectare, 20th day after treatment; further: ranges in brackets are in %
Description: as §1, §2, §3, §4

velvetleaf [5] = assay: Upland soil treatment test (6); details: 100 g/hectare, 20th day after treatment; further: ranges in brackets are in %
Description: as §1, §2, §3, §4

slender amaranth [6] = assay: Upland soil treatment test (6); details: 100 g/hectare, 20th day after treatment; further: ranges in brackets are in %
Description: as §1, §2, §3, §4

large crabgrass [7] = assay: Upland soil treatment test (6); details: 100 g/hectare, 20th day after treatment; further: ranges in brackets are in %
Description: as §1, §2, §3, §4

umbrella plant = assay: Submergence soil treatment test (4); details: twenty days after treatment; further: ranges in brackets are in %
Description: as §1
(§5) (4) Biological Test (Submergence Soil Treatment Test, Herbicide Examples 5˜9 and Comparative Examples 5˜8 and Reference Example 1 and 2)
(§6) 1/15,500-are porcelain pots were filled with paddy field soil, and seeds of barnyard grass and umbrella plant were sown in a surface layer of the soil, and paddy rice at the 2-leaf stage was transplanted. Then, the weeds were treated by uniformly spraying a diluted solution of a predetermined amount of the herbicide prepared in the above (1) onto the water surface at the time of germination of the weeds, and then the pots were allowed to stand in a greenhouse while water was properly sprayed. […] The dosage of each herbicide is shown as an amount of the active ingredient per 10 areas. Further, air-dried weights were measured, and the herbicidal efficacy and the phytotoxicity to the paddy rice were shown as follows.

barnyard grass [8] = assay: Submergence soil treatment test (4); details: twenty days after treatment; further: ranges in brackets are in %
Description: as §1, §5, §6

barnyard grass [9] = assay: Upland soil treatment test (5); details: dosage 100 g a.i./hectare, 20th day after treatment; further: ranges in brackets are in %
Description: as §1
(§7) (5) Biological Test (Upland Soil Treatment Test, Herbicide Examples 10-26 and Comparative Example 9)
(§8) Seeds of weeds such as large crabgrass, barnyard grass, green foxtail, cocklebur, velvetleaf and slender amaranth and seeds of corn, wheat and barley were sown in 1/5,000-are Wagner pots filled with upland soil, and covered with upland soil. Then, a predetermined amount of the herbicide prepared in the above (1) was suspended in water and uniformly sprayed onto the soil surface. Thereafter, the plants were grown in the greenhouse, and on 20th day after the treatment, the herbicide was evaluated for herbicidal efficacy.
(§9) The dosage of each herbicide is indicated as an amount of the active ingredient per hectare. Further, air-dried weight were measured, and herbicidal efficacy and the pytotoxicity to corn are shown on the basis of the ratings described below.

green foxtail [10] = assay: Upland soil treatment test (5); details: dosage 100 g a.i./hectare, 20th day after treatment; further: ranges in brackets are in %
Description: as §1, §7, §8, §9

cocklebur [11] = assay: Upland soil treatment test (5); details: dosage 100 g a.i./hectare, 20th day after treatment; further: ranges in brackets are in %
Description: as §1, §7, §8, §9

velvetleaf [12] = assay: Upland soil treatment test (5); details: dosage 100 g a.i./hectare, 20th day after treatment; further: ranges in brackets are in %
Description: as §1, §7, §8, §9

slender amaranth [13] = assay: Upland soil treatment test (5); details: dosage 100 g a.i./hectare, 20th day after treatment; further: ranges in brackets are in %
Description: as §1, §7, §8, §9

large crabgrass [14] = assay: Upland soil treatment test (5); details: dosage 100 g a.i./hectare, 20th day after treatment; further: ranges in brackets are in %
Description: as §1, §7, §8, §9

corn [15] = assay: Upland soil treatment test (5), phytotoxicity; details: dosage 100 g a.i./hectare, 20th day after treatment
Description: as §1, §7, §8, §9

paddy rice = assay: Submergence soil treatment test (4), phytotoxicity; details: twenty days after treatment
Description: as §1, §5, §6

SMILES | Phytotoxicity to corn (corn [1]) | Herbicidal efficacy (B): barnyard grass (barnyard grass [2]) | Herbicidal efficacy (C): green foxtail (green foxtail [3]) | Herbicidal efficacy (D): cocklebur (cocklebur [4]) | Herbicidal efficacy (E): velvetleaf (velvetleaf [5]) | Herbicidal efficacy (F): slender amaranth (slender amaranth [6]) | Herbicidal efficacy (A): large crabgrass (large crabgrass [7]) | Herbicidal Effficacy umbrella plant (umbrella plant; dosage 1 g a.i./10 are) | Herbicidal Effficacy umbrella plant (umbrella plant; dosage 3 g a.i./10 are) | Herbicidal Effficacy barnyard grass (barnyard grass [8]; dosage 1 g a.i./10 are) | Herbicidal Effficacy barnyard grass (barnyard grass [8]; dosage 3 g a.i./10 are) | Herbicidal Efficacy barnyard grass (barnyard grass [9]) | Herbicidal Efficacy green foxtail (green foxtail [10]) | Herbicidal Efficacy cocklebur (cocklebur [11]) | Herbicidal Efficacy velvetleaf (velvetleaf [12]) | Herbicidal Efficacy slender amaranth (slender amaranth [13]) | Herbicidal Efficacy large crabgrass (large crabgrass [14]) | Phyto-toxicity to corn (corn [15]) | Phytotoxicity to paddy rice (paddy rice; dosage 1 g a.i./10 are) | Phytotoxicity to paddy rice (paddy rice; dosage 3 g a.i./10 are)
CCn1ncc(C(=O)c2cc(C)c3c(c2C)C(C)CCS3(=O)=O)c1OS(=O)(=O)c1ccc(C)cc1 (centres unmarked) [Compound 52, 4,5,8-trimethyl-6-(1-ethyl-5-p-toluenesulfonyloxypyrazol-4-yl)carbonylthiochroman-1,1-dioxide] | 0 (100) | 5 (0) | 5 (0) | 5 (0) | 5 (0) | 5 (0) | 5 (0) |  |  |  |  |  |  |  |  |  |  |  |  | 
CCn1ncc(C(=O)c2ccc3c(c2C)CCCS3(=O)=O)c1O [Compound 48, 5-Methyl-6-(1-ethyl-5-hydroxypyrazol-4-yl)carbonylthiochroman-1,1-dioxide] | 0 (100) | 5 (0) | 1 (61-80) | 1 (61-80) | 5 (0) | 5 (0) | 5 (0) |  |  |  |  |  |  |  |  |  |  |  |  | 
CCCS(=O)(=O)Oc1c(C(=O)c2cc(C)c3c(c2C)C(C)CCS3(=O)=O)cnn1CC (centres unmarked) [Compound 51, 4,5,8-trimethyl-6-(1-ethyl-5-n-propanesulfonyloxypyrazol-4-yl)carbonylthiochroman-1,1-dioxide] | 0 (100) | 5 (0) | 5 (0) | 5 (0) | 5 (0) | 5 (0) | 5 (0) |  |  |  |  |  |  |  |  |  |  |  |  | 
Cc1ccc(S(=O)(=O)Oc2c(C(=O)c3cc(C)c4c(c3C)C(C)(C)CCS4)c(C)nn2C)cc1 [Compound 31] | 0 (100) | 4 (1-20) | 3 (21-40) | 1 (61-80) | 4 (1-20) | 5 (0) | 5 (0) |  |  |  |  |  |  |  |  |  |  |  |  | 
CCn1ncc(C(=O)c2ccc(S(C)(=O)=O)c(C(=O)OC)c2Cl)c1O [Comp'd A, reference compound] | 0 (100) | 2 (41-60) | 4 (1-20) | 1 (61-80) | 5 (0) | 3 (21-40) | 1 (61-80) | 0 (81-100) | 4 (1-20) | 1 (61-80) | 4 (1-20) | 2 (41-60) | 4 (1-20) | 1 (61-80) | 5 (0) | 3 (21-40) | 1 (61-80) | 0 (100) | 0 (100) | 4 (0-79)
CCn1ncc(C(=O)c2cc(C)c3c(c2C)C(C)CCS3(=O)=O)c1O (centres unmarked) [Compound 44, 4,5,8-trimethyl-6-(1-ethyl-5-hydroxypyrazol-4-yl)carbonylthiochroman-1,1-dioxide] | 0 (100) | 5 (0) | 5 (0) | 5 (0) | 5 (0) | 5 (0) | 5 (0) |  |  |  |  |  |  |  |  |  |  |  |  | 
CCCS(=O)(=O)Oc1c(C(=O)c2cc(C)c3c(c2C)C(C)(C)CCS3(=O)=O)c(C)nn1C [Compound 30, 4,4,5,8-tetramethyl-6-(1,3-dimethyl-5-n-propanesulfonyloxypyrazol-4-yl)carbonylthiochroman-1,1-dioxide] | 0 (100) | 4 (1-20) | 3 (21-40) | 1 (61-80) | 5 (0) | 5 (0) | 5 (0) |  |  |  |  |  |  |  |  |  |  |  |  | 
